How the values were obtained:
[1] = test system: KMS-27 multiple myeloma cells; experiment: Cell Titre Glo viability, EZH2 inhibitor and lenalidomide matrix, KMS-27; assay type: cell-based; settings: Inhibitor 1 alone, FIG. 4E
Protocol: (§1) For all these experiments estimating the combinatorial response between EZH2 inhibitor and lenalidomide, cells were pre-treated with 8 different doses of EZH2 inhibitor for 8 days (Cells were split after 4 days and plated onto EZH2 inhibitor containing plates for an additional 4 days). After pre-treatment, cells were split and seeded onto EZH2 inhibitor and lenaldomide containing plates (compounds plated in a matrix format). Viability was assessed using Cell Titre Glo after 4 days of co-treatment.
(§2) Data are represented as the average percentage of cells in drug-treated wells as compared to DMSO-treated wells from independent duplicate experiments (i and ii). To assess synergy, the data was analyzed in a number of ways including calculation of combination index, bliss independence score and Loewe excess score. […] Data are represented as the mean of independent duplicate experiments ±s.d.

[2] = test system: OPM-2 subcutaneous xenograft; experiment: OPM-2 subcutaneous xenograft combination experiment (lenalidomide, dexamethasone); assay type: in vivo, BALB/C nude mouse
Protocol: (§3) The experiment was carried out to assess the impact of Inhibitor 1 and lenalidomide in combination. Inhibitor 1 was dosed twice daily at 200 mg/kg, administered subcutaneously (200 mpk SC BID) and lenalidomide was dosed intraperitoneally once a day at 25 mg/kg (25 mpk IP QD) for the course of the entire study. Tumor volume was plotted as a function of time. Data are represented as the mean tumor volume per cohort and time point ±s.d. Bodyweight was assessed for vehicle and compound-treated animals for the experiment described in FIG. 6A. […] Data are represented as described in FIG. 6A. Vehicle and compound-treated tumors were collected at the end of the study and analyzed for global H3K27me3 and total H3 levels using an MSD ELISA assay.
Tumor volume was plotted as a function of time.

H3K27me3 [3] = experiment: MSD ELISA of global H3K27me3 and total H3 in OPM-2 tumors (lenalidomide study); assay type: in vivo, BALB/C nude mouse; settings: end of study, total H3 as normalizer; Inhibitor 1 vs vehicle control, combination vs lenalidomide alone; FIG. 6C
Protocol: as §3
Total H3 was used as a normalizer. Data are represented as the mean of data from 4 subjects±s.e.m.

H3K27me3 [4] = experiment: MSD ELISA of global H3K27me3 and total H3 in OPM-2 tumors (Panobinostat study); assay type: in vivo, BALB/C nude mouse; settings: Inhibitor 1 200 mpk SC BID vs vehicle control, end of study
Protocol: FIG. 11A is an in vivo combination experiment using an OPM-2 subcutaneous xenograft BALB/C nude mouse model (n=8 per cohort). The experiment was carried out to assess the impact of Inhibitor 1 and Panobinostat in combination. Inhibitor 1 was dosed twice daily at 200 mg/kg administered subcutaneously (200 mpk SC BID) and Panobinostat was dosed intraperitoneally once a day. Panobinostat was dosed at 5 mg/kg QD (DO-D4); 2.5 mg/kg QD (D7-D9, D13, D17 and D19), the dose and frequency of dosing was reduced to manage the toxicity effects. Tumor volume was plotted as a function of time. Data are represented as the mean tumor volume per cohort and time point±s.d. Bodyweight was assessed for vehicle and compound-treated animals for the experiment described in FIG. 11B. Data are represented as described in FIG. 11C. Vehicle and Inhibitor 1-treated tumors were collected at the end of the study and analyzed for global H3K27me3 and total H3 levels using an MSD ELISA assay. […] Data are represented as the mean of data from 4 subjects±s.e.m.

[5] = test system: 19 multiple myeloma cell lines; experiment: Combination with standard of care agents in multiple myeloma cell lines; assay type: cell-based; settings: FIG. 16
Text: FIG. 16 summarizes the synergies observed between various standard of care agents as described above in 19 multiple myeloma cell lines.

[6] = test system: OPM-2 multiple myeloma cells; experiment: Cell Titre Glo viability, EZH2 inhibitor and lenalidomide matrix, OPM-2; assay type: cell-based; settings: Inhibitor 1 alone, FIG. 3E
Protocol: as §1, §2

KARPAS-422 xenograft = settings: mouse, in vivo, po, 100 mg/kg
Protocol: Tumor volume measurements were recorded at indicated days post initial dose.* CHOP: Cyclophosphamide, 40 mg/kg, i.v.; doxorubicin, 3.3 mg/kg, i.v.; vincristine, 0.5 mg/kg, i.v.; and prednisone, 0.2 mg/kg, every day for 5 days, p.o.

SMILES	effect of single agent on cell viability [1]	single agent activity in xenograft model ([2]; Inhibitor 1 200 mpk SC BID alone)	effect on in vivo anti-tumor activity of dexamethasone ([2]; OPM-2 xenograft, FIG. 13)	levels of H3K27me3 in tumors (H3K27me3 [3])	levels of H3K27me3 in tumors (H3K27me3 [4])	combinatorial activity with standard of care agents [5]	effect of single agent on cell viability [6]	adverse effects / toxicity (KARPAS-422 xenograft)
CCS(=O)(=O)N1CCC([C@@H](C)n2c(C)c(C(=O)NCc3c(OC)cc(C)[nH]c3=O)c3ccccc32)CC1 [Inhibitor 1]	dose-dependent effect	little single agent activity	increases	marked reduction	marked reduction	broadly combines with various different standard of care agents	dose-dependent effect	
COc1cc(C)[nH]c(=O)c1CNC(=O)c1c(C)n(C(C)C2CCN(CC(F)(F)F)CC2)c2ccccc12 (stereo not drawn) [Inhibitor 3]								did not show any adverse effects and did not add to CHOP toxicity
Nc1cccc2c1CN(C1CCC(=O)NC1=O)C2=O (stereo not drawn) [Lenalidomide, lenalidomide, reference compound]				did not affect				
